pIC50: −log10 of the molar value. Like-named read-outs stand apart in the source and are kept apart here.
Key:
[1] = target: T1, Calmodulin Kinase (calmodulin-dependent protein kinase 2) (Rattus norvegicus, UniProt P11275); experiment: Kinase Selectivity Assay Calmodulin Kinase; type: biochemical; conditions: Kinase Selectivity, Tables 2a-2k; read-out: Calmodulin Kinase 2 IC50
T1 construct: a truncated version of the alpha subunit of the rat protein; purchased New England Biolabs 6060; host or cells: insect cells
Protocol: (§1) Assays to test compound inhibition of other kinases were preformed using methods that measure the amount of phosphorylation of a biotinylated peptide substrate. Biotinylated peptide substrates were selected from the literature as appropriate for the enzyme being evaluated. […] Assay conditions vary slightly for each protein kinase, for example, insulin receptor kinase requires 10 mM MnCl2 for activity and Calmodulin-dependent protein kinase requires calmodulin and 10 mM CaCl2. These assay conditions are known in the art. The reaction mixture was dispensed into the wells of a streptavidin coated Flashplate and 1 μl drug stock in 100% DMSO was added to a 100 μl reaction volume resulting in a final concentration of 1% DMSO on the reaction. Enzyme was diluted in 50 mM Tris-HCl pH=8.0, 0.1% BSA and add to each well. The reaction was incubated for one hour at 30° C. in the presence of compound. After one hour the reaction mix was aspirated from the plate and the plate was washed with PBS containing 100 mM EDTA. The plate was read on a scintillation counter to determine ^33P-γ-ATP incorporated into the immobilized peptide. Test compounds were assayed in duplicate at 8 concentrations [100 uM, 10 uM, 1 uM, 100 nM, 10 nM, 1 nM, 100 pM, 10 pM]. A maximum and minimum signal for the assay was determined on each plate. The IC50 was calculated from the dose response curve of the percent inhibition of the maximum signal in the assay according to the formula [max signal—background/test compound signal—background (100)=% inhibition] by graphing the percent inhibition against the log concentration of test compound. Known inhibitor compounds appropriate for the kinase being assayed were also included on each plate.
(§2) CDK2 in complex with cyclin A is commercially available (Upstate Biotech, Lake Placid, N.Y.). The CDK4 complex was composed of a mouse CDK4 protein and a mouse Cyclin D1 protein (The mouse CDK4 protein was genetically fused to an N-terminal Flag-epitope tag and the mouse Cyclin D1 protein was fused with an N-terminal AU-1 epitope tag. The genes encoding these proteins were transferred to commercially available baculoviral vectors. The recombinant CDK4/D1 complex was then made by co-infecting commercially available insect cells with viruses carrying these two constructs). […] ERK-1 protein (Discontinued from Calbiochem). EGFR (epidermal growth factor receptor) is purified from human A431 cell membranes (Sigma, St. Louis, Mo., Cat.# E3641).

[2] = target: T2, MAP Kinase (ERK-2 isoform) (Rattus norvegicus, UniProt P63086); experiment: Kinase Selectivity Assay MAP Kinase (ERK-2); type: biochemical; conditions: Kinase Selectivity, Tables 2a-2k; read-out: ERK 2 IC50
T2 construct: polyhistidine (N); host or cells: E. coli
Protocol: as §1, §2

[3] = target: T3, HER2 (human epidermal growth factor receptor-2) (Homo sapiens, UniProt P04626); experiment: Kinase Selectivity Assay HER2; type: biochemical
T3 construct: begins at amino acid 676 followed by the remainder of the HER2 cytoplasmic domain; polyhistidine (N)
How it was run: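 Radiometric Flashplate format: ^33P-γ-ATP transfer to immobilized biotinylated peptide, 1 h, 30° C, 1% DMSO final, enzyme in 50 mM Tris-HCl pH=8.0 + 0.1% BSA. Duplicate 8-point dilution, 100 uM down to 10 pM. IC50 from % inhibition of plate max signal versus log conc.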

FGF-R2 = FGF-R2 (Homo sapiens, UniProt P21802); experiment: Kinase Selectivity Assay FGF-R2; type: biochemical; conditions: Tables 2a-2k
Protocol: as §1

HCT-116 colon carcinoma = experiment: Inhibition of Cell Proliferation (14C-thymidine incorporation), HCT-116; type: cell-based; conditions: Homo sapiens, HCT-116 cell line
Protocol: (§3) The ability of a test compound to inhibit the proliferation of cell growth was determined by measuring incorporation of ^14C-labelled thymidine into newly synthesized DNA within the cells. This method was used on cell lines derived from carcinomas originating from several tissues such as HeLa cervical adenocarcinoma (American Type Culture Collection (ATCC), Virginia, Cat. #CCL-2), A375 malignant melanoma (ATCC CRL-1619), SK-OV-3 ovarian adenocarcinoma (ATCC HTB-77) HCT-116 colon carcinoma (CCL-247), PC-3 prostate adenocarcinoma (ATCC CRL-1435), and MDA-MB-231 (Xenogen Corp.) In this way the effect of a compound on cell growth of cells with many different phenotypes can be determined. Cells were trypsinized and counted and 3000-8000 cells were added to each well of a 96-well CytoStar tissue culture treated scintillating microplate (Amersham #RPNQ0160) in complete medium in a volume of 100 μl. Cells were incubated for 24 hours in complete medium at 37° C. in an atmosphere containing 5% CO2. Next, 1 μl of test compound in 100% DMSO was added to the wells of the plate. DMSO only was added to control wells. Cells were incubated for 24 more hours in complete medium at 37° C. in an atmosphere containing 5% CO2. Methyl ^14C-thymidine 56 mCi/mmol (NEN #NEC568 or Amersham #CFA532) was diluted in complete medium and 0.2 uCi/well was added to each well of the CytoStar plate in a volume of 20 μl. The plate was incubated for 24 hours at 37° C. plus 5% CO2 in drug plus ^14C-thymidine. The contents of the plate were discarded into a ^14C radioactive waste container by inverting the plate and the plate was washed twice with 200 μl PBS. 200 μl of PBS is added to each well. The top of the plate was sealed with a transparent plate sealer and a white plate backing sealer (Packard #6005199) was applied to the bottom of the plate. The degree of methyl ^14C-thymidine incorporation was quantified on a Packard Top Count.

[4] = tested on: PC-3 prostate adenocarcinoma; experiment: Inhibition of Cell Proliferation (14C-thymidine incorporation), PC-3; type: cell-based; conditions: Homo sapiens, PC-3 cell line
Protocol: as §3

[5] = target: T4, Casein Kinase 2 (alpha and beta subunits) (Homo sapiens, UniProt P68400); experiment: Kinase Selectivity Assay Casein Kinase 2; type: biochemical; conditions: Kinase Selectivity, Tables 2a-2k; read-out: Caseine Kinase 2 IC50
T4 construct: purchased New England Biolabs 6010; host or cells: E. coli
Protocol: as §1, §2

[6] = target: T5, PDGF-R (platelet derived growth factor receptor) beta subunit kinase domain (Homo sapiens, UniProt P09619); experiment: Kinase Selectivity Assay PDGF-R; type: biochemical; conditions: Kinase Selectivity, Tables 2a-2k; read-out: PDGF-R kinase IC50
T5 construct: nucleotides 1874-3507 of the human PDGF-R beta subunit kinase domain; polyhistidine (N)
Protocol: as §1, §2

[7] = target: T6, Glycogen Synthase Kinase-3 (beta isoform) (Oryctolagus cuniculus, UniProt G1T8E2); experiment: Kinase Selectivity Assay Glycogen Synthase Kinase-3; type: biochemical, rabbit; conditions: Kinase Selectivity, Tables 2a-2k; read-out: GSK-3 IC50
T6 construct: purchased New England Biolabs 6040; host or cells: E. coli
Protocol: as §1, §2

[8] = target: T7, Casein Kinase 1 (CK1 delta isoform) (Rattus norvegicus, UniProt Q06486); experiment: Kinase Selectivity Assay Casein Kinase 1; type: biochemical; conditions: Tables 2a-2k, read-out: Caseine Kinase 1 IC50
T7 construct: a truncation at amino acid 318 of the C-terminal portion of the rat CK1 delta isoform; purchased New England Biolabs 6030; host or cells: E. coli
T7 sequence (Q06486 1-317): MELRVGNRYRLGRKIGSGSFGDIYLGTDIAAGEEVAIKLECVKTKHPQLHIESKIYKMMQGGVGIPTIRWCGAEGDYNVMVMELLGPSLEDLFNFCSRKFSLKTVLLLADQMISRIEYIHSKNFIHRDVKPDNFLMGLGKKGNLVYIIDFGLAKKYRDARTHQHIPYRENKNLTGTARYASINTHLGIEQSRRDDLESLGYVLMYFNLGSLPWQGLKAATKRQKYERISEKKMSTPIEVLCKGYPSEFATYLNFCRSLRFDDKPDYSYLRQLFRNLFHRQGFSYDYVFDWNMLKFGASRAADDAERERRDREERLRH
Protocol: as §1, §2

A375 malignant melanoma = experiment: Inhibition of Cell Proliferation (14C-thymidine incorporation), A375; type: cell-based; conditions: Homo sapiens, A-375, A375 cell line
Protocol: as §3

Protein Kinase A = target: T8, Protein Kinase A (Bos taurus, UniProt P00517); experiment: Kinase Selectivity Assay Protein Kinase A; type: biochemical, bovine; conditions: Kinase Selectivity, Tables 2a-2k; read-out: PKA IC50
T8 construct: purified from bovine heart; purchased Upstate Biotech 14-114; host or cells: bovine heart
Protocol: as §1, §2

Insulin Receptor Kinase = Insulin Receptor Kinase (Homo sapiens, UniProt P06213); experiment: Kinase Selectivity Assay Insulin Receptor Kinase; type: biochemical; conditions: Kinase Selectivity, Tables 2a-2k; read-out: Insulin R Kinase IC50
Protocol: as §1, §2

[9] = tested on: HeLa cervical adenocarcinoma; experiment: Inhibition of Cell Proliferation (14C-thymidine incorporation), HeLa; type: cell-based; conditions: Homo sapiens, HeLa cell line
Protocol: as §3

[10] = target: T9, VEGF-R (vascular endothelial growth factor receptor-2) (Rattus norvegicus, UniProt O08775); experiment: VEGF-R Screening Assay; type: biochemical; conditions: read-out: VEGF-R IC50
T9 construct: polyhistidine (6xHIS) (N)

[11] = target: PKC (protein kinase-C), gamma or beta isoform; experiment: Kinase Selectivity Assay PKC; type: biochemical, human; conditions: Tables 2a-2k
Protocol: as §1
CDK2 in complex with cyclin A is commercially available (Upstate Biotech, Lake Placid, N.Y.). […]

[12] = target: T10, CDK2 in complex with cyclin A (Homo sapiens, UniProt P24941); experiment: Kinase Selectivity Assay CDK2; type: biochemical; conditions: Table 1
T10 construct: purchased Upstate Biotech
Protocol: as §1, §2

[13] = Kinase Selectivity, Tables 2a-2k, read-out: HER2 Kinase IC50

T5 sequence (P09619 564-1106): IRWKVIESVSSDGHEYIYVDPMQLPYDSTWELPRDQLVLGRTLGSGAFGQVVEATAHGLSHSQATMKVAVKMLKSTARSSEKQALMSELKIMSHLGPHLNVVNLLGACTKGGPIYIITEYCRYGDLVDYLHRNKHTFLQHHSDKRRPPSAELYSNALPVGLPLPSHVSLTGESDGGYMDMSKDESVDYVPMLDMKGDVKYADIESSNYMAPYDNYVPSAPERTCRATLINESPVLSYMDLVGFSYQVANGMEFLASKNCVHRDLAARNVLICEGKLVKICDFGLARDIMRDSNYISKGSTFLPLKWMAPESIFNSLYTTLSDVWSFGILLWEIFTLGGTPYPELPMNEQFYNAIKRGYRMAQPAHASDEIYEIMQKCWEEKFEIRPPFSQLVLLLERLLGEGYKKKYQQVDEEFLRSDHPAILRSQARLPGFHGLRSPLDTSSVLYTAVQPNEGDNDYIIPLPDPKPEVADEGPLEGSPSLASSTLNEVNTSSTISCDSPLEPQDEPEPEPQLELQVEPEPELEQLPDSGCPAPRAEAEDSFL
Chain of Insulin Receptor Kinase (P06213 980-1352): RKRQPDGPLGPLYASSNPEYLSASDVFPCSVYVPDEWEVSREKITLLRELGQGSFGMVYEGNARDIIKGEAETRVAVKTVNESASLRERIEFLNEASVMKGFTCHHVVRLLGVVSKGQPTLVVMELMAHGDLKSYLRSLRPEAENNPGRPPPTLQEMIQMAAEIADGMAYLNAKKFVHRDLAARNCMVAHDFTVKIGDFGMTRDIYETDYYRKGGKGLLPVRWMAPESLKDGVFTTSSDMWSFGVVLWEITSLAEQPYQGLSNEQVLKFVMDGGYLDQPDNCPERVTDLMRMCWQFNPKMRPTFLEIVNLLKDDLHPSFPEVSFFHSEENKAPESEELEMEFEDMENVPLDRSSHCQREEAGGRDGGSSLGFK
Chain of FGF-R2 (P21802 22-821, species assumed): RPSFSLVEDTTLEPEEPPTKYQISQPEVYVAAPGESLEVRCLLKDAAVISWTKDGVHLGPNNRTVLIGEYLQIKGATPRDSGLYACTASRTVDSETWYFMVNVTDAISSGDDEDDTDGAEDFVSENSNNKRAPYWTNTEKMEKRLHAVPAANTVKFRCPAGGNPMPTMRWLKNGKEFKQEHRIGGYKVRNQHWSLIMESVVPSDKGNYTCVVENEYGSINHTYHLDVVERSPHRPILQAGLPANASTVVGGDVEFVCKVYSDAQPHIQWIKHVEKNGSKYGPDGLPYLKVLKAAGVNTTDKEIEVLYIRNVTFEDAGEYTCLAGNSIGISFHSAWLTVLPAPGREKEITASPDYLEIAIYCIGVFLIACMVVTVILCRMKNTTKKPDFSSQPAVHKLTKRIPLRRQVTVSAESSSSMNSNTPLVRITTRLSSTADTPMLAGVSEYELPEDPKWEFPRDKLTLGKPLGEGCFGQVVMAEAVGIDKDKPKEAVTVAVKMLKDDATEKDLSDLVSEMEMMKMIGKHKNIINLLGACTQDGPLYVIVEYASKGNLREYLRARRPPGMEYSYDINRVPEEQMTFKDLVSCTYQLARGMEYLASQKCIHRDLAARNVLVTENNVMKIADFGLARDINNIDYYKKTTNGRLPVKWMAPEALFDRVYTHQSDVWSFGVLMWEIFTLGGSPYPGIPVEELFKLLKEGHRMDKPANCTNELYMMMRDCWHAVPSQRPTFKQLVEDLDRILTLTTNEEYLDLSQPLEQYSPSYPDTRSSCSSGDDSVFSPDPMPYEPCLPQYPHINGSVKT
T6 sequence (G1T8E2 1-432): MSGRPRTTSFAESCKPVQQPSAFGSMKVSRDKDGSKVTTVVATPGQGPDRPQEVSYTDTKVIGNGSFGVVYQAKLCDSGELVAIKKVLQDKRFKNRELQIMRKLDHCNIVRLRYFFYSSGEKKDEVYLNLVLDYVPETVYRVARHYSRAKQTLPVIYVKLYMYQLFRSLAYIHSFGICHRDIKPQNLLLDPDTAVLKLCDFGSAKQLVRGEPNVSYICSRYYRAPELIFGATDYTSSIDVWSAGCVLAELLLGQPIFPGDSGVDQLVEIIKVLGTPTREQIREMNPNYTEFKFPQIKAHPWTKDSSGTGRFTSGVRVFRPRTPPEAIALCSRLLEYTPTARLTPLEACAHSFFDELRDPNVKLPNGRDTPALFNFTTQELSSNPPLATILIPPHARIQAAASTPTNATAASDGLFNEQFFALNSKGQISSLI
T2 sequence (P63086 whole entry, canonical isoform): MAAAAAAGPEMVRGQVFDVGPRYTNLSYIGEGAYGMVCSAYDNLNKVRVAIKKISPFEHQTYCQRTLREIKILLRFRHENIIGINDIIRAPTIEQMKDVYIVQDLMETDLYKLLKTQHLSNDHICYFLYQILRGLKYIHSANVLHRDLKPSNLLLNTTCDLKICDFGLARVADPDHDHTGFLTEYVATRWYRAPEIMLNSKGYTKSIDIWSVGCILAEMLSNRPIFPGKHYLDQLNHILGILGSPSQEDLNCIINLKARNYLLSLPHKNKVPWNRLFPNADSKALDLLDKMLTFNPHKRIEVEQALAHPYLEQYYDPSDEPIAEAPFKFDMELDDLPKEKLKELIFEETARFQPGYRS
T3 sequence (P04626 676-1255 limits assumed): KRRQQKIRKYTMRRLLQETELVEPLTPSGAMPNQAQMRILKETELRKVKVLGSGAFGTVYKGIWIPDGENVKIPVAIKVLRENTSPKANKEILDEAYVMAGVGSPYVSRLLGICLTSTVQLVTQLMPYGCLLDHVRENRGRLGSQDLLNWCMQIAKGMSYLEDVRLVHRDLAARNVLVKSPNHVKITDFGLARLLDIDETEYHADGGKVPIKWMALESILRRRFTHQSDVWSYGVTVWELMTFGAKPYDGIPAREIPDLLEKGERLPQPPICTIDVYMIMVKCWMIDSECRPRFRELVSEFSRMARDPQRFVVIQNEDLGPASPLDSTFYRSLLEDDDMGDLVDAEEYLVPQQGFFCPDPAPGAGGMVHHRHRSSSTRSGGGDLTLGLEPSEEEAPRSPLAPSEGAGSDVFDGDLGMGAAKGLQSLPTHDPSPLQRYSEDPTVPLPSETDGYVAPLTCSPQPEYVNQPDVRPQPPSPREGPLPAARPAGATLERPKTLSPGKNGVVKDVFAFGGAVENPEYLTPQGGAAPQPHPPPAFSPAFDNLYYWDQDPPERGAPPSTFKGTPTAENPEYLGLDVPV
T4 sequence (P68400 whole entry): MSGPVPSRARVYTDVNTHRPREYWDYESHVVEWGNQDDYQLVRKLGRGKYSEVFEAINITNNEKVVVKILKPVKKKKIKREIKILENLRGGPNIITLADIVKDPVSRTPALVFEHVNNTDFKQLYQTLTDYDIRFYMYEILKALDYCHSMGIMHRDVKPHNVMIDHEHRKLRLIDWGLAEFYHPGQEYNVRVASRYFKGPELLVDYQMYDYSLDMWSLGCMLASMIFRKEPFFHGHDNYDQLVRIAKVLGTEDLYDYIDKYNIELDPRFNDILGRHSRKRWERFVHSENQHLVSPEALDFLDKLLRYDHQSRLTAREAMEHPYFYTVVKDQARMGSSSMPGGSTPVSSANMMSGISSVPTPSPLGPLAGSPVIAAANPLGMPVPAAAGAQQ
T4 sequence (P67870 whole entry partner): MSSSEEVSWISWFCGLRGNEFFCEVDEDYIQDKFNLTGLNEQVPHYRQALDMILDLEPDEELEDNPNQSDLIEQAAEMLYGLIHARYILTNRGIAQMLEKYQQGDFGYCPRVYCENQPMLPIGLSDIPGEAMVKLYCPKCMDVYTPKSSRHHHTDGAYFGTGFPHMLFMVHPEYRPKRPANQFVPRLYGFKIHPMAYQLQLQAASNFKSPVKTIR
T9 sequence (O08775 786-1343): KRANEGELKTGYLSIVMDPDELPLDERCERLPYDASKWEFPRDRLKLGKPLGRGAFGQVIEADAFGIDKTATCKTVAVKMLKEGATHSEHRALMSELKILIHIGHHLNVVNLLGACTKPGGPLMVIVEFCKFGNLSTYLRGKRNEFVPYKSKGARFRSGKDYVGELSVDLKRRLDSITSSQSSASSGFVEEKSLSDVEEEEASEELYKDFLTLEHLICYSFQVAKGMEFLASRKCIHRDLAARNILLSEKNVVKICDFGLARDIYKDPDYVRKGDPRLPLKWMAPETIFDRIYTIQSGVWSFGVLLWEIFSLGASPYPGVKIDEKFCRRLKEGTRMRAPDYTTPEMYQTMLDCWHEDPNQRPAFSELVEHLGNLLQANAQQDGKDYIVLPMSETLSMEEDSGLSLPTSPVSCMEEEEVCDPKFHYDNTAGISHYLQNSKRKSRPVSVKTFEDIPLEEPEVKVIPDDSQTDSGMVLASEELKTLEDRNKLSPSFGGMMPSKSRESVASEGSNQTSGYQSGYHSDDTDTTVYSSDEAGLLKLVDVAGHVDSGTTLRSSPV

SMILES: CNS(=O)(=O)c1ccc(Nc2nc(N)n(C(=O)c3sc(C)cc3C)n2)cc1 [Cpd 83, 4-[[5-amino-1-[(3,5-dimethyl-2-thienyl)carbonyl]-1H-1,2,4-triazol-3-yl]amino]-N-methyl-benzenesulfonamide]
- pIC50 [1]: < 4.00
- pIC50 [2]: < 4.00
- pIC50 [3, 13]: 7.89
- pIC50 ([3]; Table 1, read-out: HER2 IC50): 7.89
- pIC50 (FGF-R2): 7.66
- IC50 (HCT-116 colon carcinoma): 192 nM
- IC50 [4]: 12 nM
- pIC50 [5]: < 4.00
- pIC50 [6]: 6.95
- pIC50 [7]: 8.15
- pIC50 [8]: 6.56
- IC50 (A375 malignant melanoma): 556 nM
- pIC50 (Protein Kinase A): < 4.00
- pIC50 (Insulin Receptor Kinase): < 5.00
- IC50 [9]: 122 nM

SMILES: Cc1cc(C)c(C(=O)n2nc(Nc3ccc(-n4ccnc4)cc3)nc2N)s1 [Cpd 92, 1-[(3,5-dimethyl-2-thienyl)carbonyl]-N^3-[4-(1H-imidazol-1-yl)phenyl]-1H-1,2,4-triazole-3,5-diamine]
- pIC50 [1]: 4.71
- pIC50 [2]: < 4.00
- pIC50 (FGF-R2): 6.62
- IC50 [4]: 1120 nM
- pIC50 [5]: < 4.00
- pIC50 [6]: 6.55
- pIC50 [7]: 7.68
- pIC50 [8]: < 5.00
- pIC50 (Protein Kinase A): < 4.00
- pIC50 (Insulin Receptor Kinase): 5.51
- IC50 [9]: 269 nM

SMILES: Cc1ccsc1C(=O)n1nc(Nc2ccc(-n3cncn3)cc2)nc1N [Cpd 99, 1-[(3-methyl-2-thienyl)carbonyl]-N^3-[4-(1H-1,2,4-triazol-1-yl)phenyl]-1H-1,2,4-triazole-3,5-diamine]
- pIC50 [1]: < 4.00
- pIC50 [2]: < 4.00
- IC50 [4]: 1690 nM
- pIC50 [5]: < 4.00
- pIC50 ([10]; Kinase Selectivity, Tables 2a-2k): 7.01
- pIC50 ([10]; Table 1): 7.01
- pIC50 [6]: 6.41
- pIC50 [7]: 7.52
- pIC50 [8]: < 6.00
- pIC50 [11]: < 4.00
- pIC50 (Insulin Receptor Kinase): < 4.00
- IC50 [9]: 3350 nM

SMILES: Cc1ccsc1C(=O)n1nc(Nc2ccc(NS(C)(=O)=O)cc2)nc1N [Cpd 109]
- pIC50 [1]: < 4.00
- pIC50 [2]: < 5.00
- pIC50 (FGF-R2): 6.61
- IC50 (HCT-116 colon carcinoma): 51 nM
- IC50 [4]: 307 nM
- pIC50 [5]: < 5.00
- pIC50 [6]: 6.38
- pIC50 [7]: 7.41
- pIC50 [12]: 7.68
- pIC50 [8]: 5.93
- pIC50 (Protein Kinase A): < 4.00
- pIC50 (Insulin Receptor Kinase): 5.56
- IC50 [9]: 479 nM

SMILES: CCc1ccc(C(=O)n2nc(Nc3ccc(S(=O)(=O)Nc4ccccn4)cc3)nc2N)s1 [Cpd 119]
- pIC50 [1]: < 4.00
- pIC50 [2]: < 4.00
- pIC50 [3, 13]: 6.00
- pIC50 ([3]; Table 1, read-out: HER2 IC50): ~6.00
- pIC50 [5]: < 4.00
- pIC50 [6]: < 5.00
- pIC50 [7]: 8.22
- pIC50 [12]: 8.52
- pIC50 [8]: 6.12
- pIC50 [11]: < 4.00
- pIC50 (Protein Kinase A): < 4.00

Source: patent US6924302B2, “Substituted triazole diamine derivatives as kinase inhibitors” (Ortho McNeil Pharmaceutical, Inc., priority 2000, dated 2005)
